Measured values taken from patent US11702404B2, “GLP-1R modulating compounds” (priority 2019, dated 2023).
pEC50: −log10 of the molar value. Read-outs that look alike come from different tables or passages of the source.

Key:
GLP-1R = GLP-1R (Homo sapiens, UniProt P43220); test: GLP-1R activation: cAMP increase in CHO cells stably expressing GLP-1R; format: cell-based; conditions: read-out: EC50
[1] = Microsomal stability, human liver microsomes (predicted hepatic clearance); conditions: predicted from in vitro microsomal stability data
[2] = cAMP increase, CHO cells stably expressing GLP-1R, 10 point dose response, 30 minutes incubation

Chain of GLP-1R (P43220 24-463): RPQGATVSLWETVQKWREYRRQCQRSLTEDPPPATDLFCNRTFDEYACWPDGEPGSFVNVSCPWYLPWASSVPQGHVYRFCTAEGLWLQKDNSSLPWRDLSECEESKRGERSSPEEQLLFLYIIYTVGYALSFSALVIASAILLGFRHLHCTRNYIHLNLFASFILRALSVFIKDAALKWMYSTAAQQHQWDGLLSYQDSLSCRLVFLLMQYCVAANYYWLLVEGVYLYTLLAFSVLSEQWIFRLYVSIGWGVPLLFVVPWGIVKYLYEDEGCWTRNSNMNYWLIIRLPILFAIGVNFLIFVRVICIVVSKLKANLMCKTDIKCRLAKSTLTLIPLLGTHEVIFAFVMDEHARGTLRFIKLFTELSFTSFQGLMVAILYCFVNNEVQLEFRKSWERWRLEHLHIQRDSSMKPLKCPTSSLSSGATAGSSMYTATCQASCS

Row | Compound | pEC50 (GLP-1R; [2]) | Predicted Hepatic Clearance (Pred. Cl.) [1] [mL/min/kg] | pEC50 (GLP-1R)
1 | COCCn1c(Cc2cc(F)c(-c3cccc(OCc4ccc(C5=CCNCC5)cc4F)n3)cc2F)nc2ccc(C(=O)O)cc21 [Example 901, 2-(2,5-difluoro-4-(6-((2-fluoro-4-(1,2,3,6-tetrahydropyridin-4-yl)benzyl)oxy)pyridin-2-yl)benzyl)-1-(2-methoxyethyl)-1H-benzo[d]imidazole-6-carboxylic acid] | 6.79 | 4.5 | –
2 | COCCn1c(Cc2cc(F)c(-c3cccc(OCc4ccc(C5=CCN(C(C)=O)CC5)cc4F)n3)cc2F)nc2ccc(C(=O)O)cc21 [Example 902, 2-(4-(6-((4-(1-acetyl-1,2,3,6-tetrahydropyridin-4-yl)-2-fluorobenzyl)oxy)pyridin-2-yl)-2,5-difluorobenzyl)-1-(2-methoxyethyl)-1H-benzo[d]imidazole-6-carboxylic acid] | 8.21 | 8.67 | –
3 | COCCn1c(Cc2ccc(-c3cccc(OCc4ccc(C#N)cc4F)n3)c3c2COC3)nc2ccc(C(=O)O)cc21 [Example 903, 2-((7-(6-((4-cyano-2-fluorobenzyl)oxy)pyridin-2-yl)-1,3-dihydroisobenzofuran-4-yl)methyl)-1-(2-methoxyethyl)-1H-benzo[d]imidazole-6-carboxylic acid] | 6.97 | 1.83 | –
4 | CC(C)(C)OC(=O)N(CCn1c(Cc2cc(F)c(-c3cccc(OCc4ccc(C#N)cc4F)n3)cc2F)nc2ccc(C(=O)O)cc21)C1CC1 [Example 907, 1-(2-((tert-butoxycarbonyl)(cyclopropyl)amino)ethyl)-2-(4-(6-((4-cyano-2-fluorobenzyl)oxy)pyridin-2-yl)-2,5-difluorobenzyl)-1H-benzo[d]imidazole-6-carboxylic acid] | – | 8.5 | 5.00
5 | COCCn1c(Cc2cc(F)c(-c3cccc(OCc4cccc(-c5ccccn5)c4)n3)cc2F)nc2ccc(C(=O)O)cc21 [Example 908] | 8.18 | 5.17 | –
6 | COCCn1c(Cc2cc(F)c(-c3cccc(OCc4cccc(-c5ncccn5)c4)n3)cc2F)nc2ccc(C(=O)O)cc21 [Example 909] | 8.65 | 3.67 | –
7 | COCCn1c(Cc2cc(F)c(-c3cccc(OCc4ccc(-c5ccccn5)cc4F)n3)cc2F)nc2ccc(C(=O)O)cc21 [Example 910] | 7.48 | 2.83 | –
8 | COCCn1c(Cc2cc(F)c(-c3cccc(OCc4ccc(-c5ncccn5)cc4F)n3)cc2F)nc2ccc(C(=O)O)cc21 [Example 911, 2-[[2,5-difluoro-4-[6-[(2-fluoro-4-pyrimidin-2-yl-phenyl)methoxy]-2-pyridyl]phenyl]methyl]-3-(2-methoxyethyl)benzimidazole-5-carboxylic acid] | 7.25 | 1.83 | –
9 | COCCn1c(Cc2cc(F)c(-c3cccc(OCc4ccc(-c5cc[nH]c(=O)c5)cc4F)n3)cc2F)nc2ccc(C(=O)O)cc21 [Example 912] | 7.82 | 1.83 | –
10 | COCCn1c(Cc2cc(F)c(-c3cccc(OCc4cccc(-c5cnn(C)c5)c4)n3)cc2F)nc2ccc(C(=O)O)cc21 [Example 913] | 6.95 | 3.83 | –
11 | COCCn1c(Cc2cc(F)c(-c3cccc(OCc4cccc(-c5ccn(C)n5)c4)n3)cc2F)nc2ccc(C(=O)O)cc21 [Example 914] | 7.29 | 6 | –
12 | COCCn1c(Cc2cc(F)c(-c3cccc(OCc4ccc(-c5cnn(C)c5)cc4F)n3)cc2F)nc2ccc(C(=O)O)cc21 [Example 915, 2-[[2,5-difluoro-4-[6-[[2-fluoro-4-(1-methylpyrazol-4-yl)phenyl]methoxy]-2-pyridyl]phenyl]methyl]-3-(2-methoxyethyl)benzimidazole-5-carboxylic acid] | 8.65 | 4 | –
13 | COCCn1c(Cc2cc(F)c(-c3cccc(OCc4ccc(-c5cnccn5)cc4F)n3)cc2F)nc2ccc(C(=O)O)cc21 [Example 916] | 8.66 | 1.83 | –
14 | COCCn1c(Cc2cc(F)c(-c3cccc(OCc4ccc(-c5ccn(C)n5)cc4F)n3)cc2F)nc2ccc(C(=O)O)cc21 [Example 917] | 7.25 | 1.83 | –
15 | CO[C@H]1CN(C(C)=O)C[C@H]1n1c(Cc2cc(F)c(-c3cccc(OCc4ccc(C#N)cc4F)n3)cc2F)nc2ccc(C(=O)O)cc21 [Example 918, 3-[(3R,4S)-1-acetyl-4-methoxy-pyrrolidin-3-yl]-2-[[4-[6-[(4-cyano-2-fluoro-phenyl)methoxy]-2-pyridyl]-2,5-difluoro-phenyl]methyl]benzimidazole-5-carboxylic acid] | – | 4.83 | 7.60
16 | CO[C@@H]1CN(C(C)=O)C[C@@H]1n1c(Cc2cc(F)c(-c3cccc(OCc4ccc(C#N)cc4F)n3)cc2F)nc2ccc(C(=O)O)cc21 [Example 919] | – | 4.17 | 6.08
17 | CO[C@@H]1CN(C(C)=O)C[C@H]1n1c(Cc2cc(F)c(-c3cccc(OCc4ccc(C#N)cc4F)n3)cc2F)nc2ccc(C(=O)O)cc21 [Example 920] | – | 4.67 | 7.23
18 | Cc1cc2nc(Cc3cc(F)c(-c4cccc(OCc5ccc(C#N)cc5F)n4)cc3F)n(C[C@@H]3CCO3)c2cc1C(=O)O [Example 921] | 9.48 | 2.83 | –
19 | CC(=O)N1CC[C@@H]1Cn1c(Cc2cc(F)c(-c3cccc(OCc4ccc(C#N)cc4F)n3)cc2F)nc2ccc(C(=O)O)cc21 [Example 925, (R)-1-((1-acetylazetidin-2-yl)methyl)-2-(4-(6-((4-cyano-2-fluorobenzyl)oxy)pyridin-2-yl)-2,5-difluorobenzyl)-1H-benzo[d]imidazole-6-carboxylic acid] | – | 5.83 | 8.44
20 | COCCn1c(Cc2cc(F)c(-c3cccc(OCc4ccc(C#N)cc4F)n3)cc2F)nc2cc(C)c(C(=O)O)cc21 [Example 926, 2-(4-(6-((4-cyano-2-fluorobenzyl)oxy)pyridin-2-yl)-2,5-difluorobenzyl)-1-(2-methoxyethyl)-5-methyl-1H-benzo[d]imidazole-6-carboxylic acid] | 7.93 | 1.83 | –
